For 40 compounds, EC50 results are on record in BindingDB's records for doi:10.7270/Q2Z31X2S (Nmmlsc, 2009).

Each structure is given as a SMILES string. pEC50: −log10 of the molar value.

The target of the first test is Cell division control protein 42 homolog (Homo sapiens, UniProt P60953). In words: wild-type Cdc42 GTP-binding inhibitors, SAR follow-up, biochemical, bead-based multiplex flow cytometry, additional SAR set (AID 2022).
Sequence of Cell division control protein 42 homolog (P60953 whole entry): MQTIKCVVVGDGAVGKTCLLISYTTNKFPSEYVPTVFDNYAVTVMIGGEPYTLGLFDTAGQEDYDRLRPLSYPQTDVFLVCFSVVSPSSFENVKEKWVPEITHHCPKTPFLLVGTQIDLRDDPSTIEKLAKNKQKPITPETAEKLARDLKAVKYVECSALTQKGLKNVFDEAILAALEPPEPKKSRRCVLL
Settings: not given
In general terms: In flow cytometry, cells or beads pass a laser one at a time.
The term pEC50 denotes the negative decadic logarithm of the EC50, by convention in mol/L. In turn, `O=C1Nc2c(Cl)cccc2C1=C1Nc2ccccc2C1=O` gave a pEC50 of 7.57.
The same measure, in the same setting: the figure for `O=C1Nc2c(Br)cccc2C1=C1Nc2ccccc2C1=O` is < 4.52.
Regarding `O=C1Nc2c(F)cccc2C1=C1Nc2ccccc2C1=O`, the pEC50 is < 4.52.
For `O=C1NC(=O)/C(=C2/C(=O)Nc3ccccc32)N1`, the pEC50 is < 4.52.
On the same count and under the same terms, the result for `O=C1Nc2cccc(Br)c2/C1=C1/Cc2ccccc2C1=O` reads < 4.52.
Still for that read-out and setting: the figure for `O=C1Nc2ccc(Br)cc2C1=C1Nc2ccccc2C1=O` is < 4.52; for `COc1ccc(S(=O)(=O)n2c(N)c(C#N)c(-c3ccccc3)c2C(=O)c2ccc(Br)cc2)cc1` it is < 4.52.
On the same count and under the same terms, the result for `O=[N+]([O-])c1ccc(C#Cc2ccccc2)cc1` reads < 4.52; that for `O=C(C#Cc1ccccc1)c1ccc(OC(F)(F)F)cc1`, < 4.52; that for `COc1ccc(C(=O)C#Cc2ccccc2)cc1` [1-(4-methoxyphenyl)-3-phenyl-2-propyn-1-one], < 4.52.
As for `O=C(C#Cc1ccccc1)c1ccc([N+](=O)[O-])cc1` [1-(4-nitrophenyl)-3-phenyl-2-propyn-1-one], the pEC50 is < 4.52.
On the same count and under the same terms, the figure for `CC(C(=O)O)c1cccc(C(=O)c2ccccc2)c1` (stereo not given) [2-(3-benzoylphenyl)propanoic acid] is < 4.52; for `COc1ccc2cc(CC(=O)O)ccc2c1` [2-(6-methoxynaphthalen-2-yl)ethanoic acid] it is < 4.52.
Take `CC(=O)Oc1ccccc1C(=O)O` [2-(acetyloxy)benzoic acid]: the negative-log EC50 (pEC50) was < 4.52.
On the same count and under the same terms, the figure for `O=C1Nc2ccccc2/C1=C1/Nc2ccccc2C1=O` [2-[(3Z)-2-oxo-2,3-dihydro-1H-indol-3-ylidene]-2,3-dihydro-1H-indol-3-one] is < 4.52; for `CCCCS(=O)(=O)n1c(N)c(C#N)c(-c2cc(OC)c(OC)c(OC)c2)c1C(=O)c1ccccc1` [2-amino-5-benzoyl-1-butylsulfonyl-4-(3,4,5-trimethoxyphenyl)-3-pyrrolecarbonitrile] it is < 4.52; for `COc1ccc(S(=O)(=O)n2c(N)c(C#N)c(-c3cncc(Br)c3)c2C(=O)c2ccccc2)cc1` [2-amino-5-benzoyl-4-(5-bromo-3-pyridinyl)-1-(4-methoxyphenyl)sulfonyl-3-pyrrolecarbonitrile] it is 4.64.
Still for that read-out and setting: the result for `COc1cc(-c2c(C#N)c(N)n(S(=O)(=O)c3c(C(C)C)cc(C(C)C)cc3C(C)C)c2C(=O)c2ccccc2)cc(OC)c1OC` [2-azanyl-5-(phenylcarbonyl)-4-(3,4,5-trimethoxyphenyl)-1-[2,4,6-tri(propan-2-yl)phenyl]sulfonyl-pyrrole-3-carbonitrile] reads < 4.52.
With `O=C1N=c2ccccc2=C1c1[nH]c2ccccc2c1NO` [3-[3-(hydroxyamino)-1H-indol-2-yl]-2-indolone], the negative logarithm of the EC50 (pEC50) was < 4.52.
Same read-out and setting: the result for `O=C(C#Cc1ccccc1)c1cccnc1` [3-phenyl-1-pyridin-3-ylprop-2-yn-1-one] reads < 4.52.
In the case of `COC(=O)c1ccc(C(=O)C#Cc2ccccc2)cc1` [4-(1-oxo-3-phenylprop-2-ynyl)benzoic acid methyl ester], the pEC50 is < 4.52.
For the compound `N#Cc1ccc(C(=O)C#Cc2ccccc2)cc1` [4-(3-phenylprop-2-ynoyl)benzenecarbonitrile], the pEC50 was < 4.52.
For the compound `O=C1N=c2ccc(Br)cc2=C1c1[nH]c2ccccc2c1NO` [5-bromanyl-3-[3-(oxidanylamino)-1H-indol-2-yl]indol-2-one], the pEC50 was < 4.52.
On the same count and under the same terms, the result for `O=C1N=c2c(Br)cccc2=C1c1[nH]c2ccccc2c1NO` [7-bromanyl-3-[3-(oxidanylamino)-1H-indol-2-yl]indol-2-one] reads < 4.52; that for `O=C1N=c2c(Cl)cccc2=C1c1[nH]c2ccccc2c1NO` [7-chloro-3-[3-(hydroxyamino)-1H-indol-2-yl]-2-indolone], < 4.52.
Same read-out and setting: the result for `O=C1N=c2c(F)cccc2=C1c1[nH]c2ccccc2c1NO` [7-fluoro-3-[3-(hydroxyamino)-1H-indol-2-yl]-2-indolone] reads 4.55; that for `O=C1Nc2c(Br)cccc2/C1=C1/Cc2ccccc2C1=O` [(3E)-7-bromo-3-(3-oxo-1H-inden-2-ylidene)-1H-indol-2-one], < 4.52.
Still for that read-out and setting: the result for `O=C1NC(=S)N/C1=C1\C(=O)Nc2ccccc21` [(3Z)-3-(5-oxo-2-sulfanylideneimidazolidin-4-ylidene)-1H-indol-2-one] reads < 4.52; that for `O=C1Nc2ccccc2/C1=C1/Cc2ccccc2C1=O` [UNM-0000305763], < 4.52; that for `COc1ccc(S(=O)(=O)n2c(N)c(C#N)c(-c3cc(Br)c(OC)c(OC)c3)c2C(=O)c2ccccc2)cc1` [UNM-0000305782], < 4.52.
For `O=C(C#Cc1ccccc1)c1ccccc1[N+](=O)[O-]` [UNM-0000306038], the negative-log EC50 (pEC50) is < 4.52.
Same read-out and setting: the figure for `O=C(C#Cc1ccccc1)c1ccccc1` [UNM-0000306039] is < 4.52; for `O=C(C#Cc1ccccc1)c1ccc(Cl)cc1` [UNM-0000306055] it is < 4.52; for `O=C(C#Cc1ccccc1)c1ccc(F)cc1` [UNM-0000306059] it is < 4.52.
For `CC1=C(CC(=O)O)c2cc(F)ccc2/C1=C/c1ccc([S+](C)[O-])cc1` (stereo not given) [UNM-0000306136], the pEC50 was < 4.52.
Still for that read-out and setting: the result for `C[C@@H](C(=O)O)c1cccc(Oc2ccccc2)c1` [calcium;2-(3-phenoxyphenyl)propanoic acid;hydrate] reads < 4.52; that for `CSc1ccc(/C=C2/C(C)=C(CC(=O)O)c3cc(F)ccc32)cc1` [{6-Fluoro-2-methyl-3-[1-(4-methylsulfanyl-phenyl)-meth-(E)-ylidene]-3H-inden-1-yl}-acetic acid], < 4.52.

Staying with this test, now noted: inactive by the depositor's call.
`COc1ccc(-c2c(C#N)c(N)n(S(C)(=O)=O)c2C(=O)c2ccccc2)cc1Br` [2-azanyl-4-(3-bromanyl-4-methoxy-phenyl)-1-methylsulfonyl-5-(phenylcarbonyl)pyrrole-3-carbonitrile] had a negative-log EC50 (pEC50) of 4.95.
Still for that read-out and setting: the figure for `CC(C)Cc1ccc([C@H](C)C(=O)O)cc1` [(S)-2-(4-Isobutyl-phenyl)-propionic acid] is 4.78; for `N#Cc1c(-c2ccc(Cl)cc2)c(C(=O)c2ccccc2)n(S(=O)(=O)c2ccc([N+](=O)[O-])cc2)c1N` [UNM-0000305780] it is 5.14.
